Assays:
Experiment in all cases: IA-DTB cysteine engagement
Assay type in all cases: binding
Conditions in all cases: 22Rv1 cells, 20 μM probe, 1 h, relative to DMSO
KRTCAP3_C197 = target: T1, KRTCAP3_C197 (Homo sapiens, UniProt Q53RY4)
T1 construct: endogenous in cells; host or cells: 22Rv1
T1 sequence (Q53RY4 1-240): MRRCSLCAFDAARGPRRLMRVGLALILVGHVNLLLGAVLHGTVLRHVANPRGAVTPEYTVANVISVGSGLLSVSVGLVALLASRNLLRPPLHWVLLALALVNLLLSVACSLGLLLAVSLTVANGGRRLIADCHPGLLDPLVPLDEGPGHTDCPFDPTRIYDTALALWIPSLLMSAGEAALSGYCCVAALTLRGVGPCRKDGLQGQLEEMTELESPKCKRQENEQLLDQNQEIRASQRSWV
Summary of the method: (§1)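 First, cells are exposed to electrophilic probes in situ. Next, lysates are labeled with IA-DTB (1 h, ambient temperature), reduced, alkylated and trypsin-digested. Then, IA-DTB peptides are enriched on streptavidin, TMT-labeled and analyzed, with ratios taken against DMSO channels.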

RETSAT_C547 = target: T2, RETSAT_C547 (Homo sapiens, UniProt Q6NUM9)
T2 construct: endogenous in cells; host or cells: 22Rv1
T2 sequence (Q6NUM9 19-610): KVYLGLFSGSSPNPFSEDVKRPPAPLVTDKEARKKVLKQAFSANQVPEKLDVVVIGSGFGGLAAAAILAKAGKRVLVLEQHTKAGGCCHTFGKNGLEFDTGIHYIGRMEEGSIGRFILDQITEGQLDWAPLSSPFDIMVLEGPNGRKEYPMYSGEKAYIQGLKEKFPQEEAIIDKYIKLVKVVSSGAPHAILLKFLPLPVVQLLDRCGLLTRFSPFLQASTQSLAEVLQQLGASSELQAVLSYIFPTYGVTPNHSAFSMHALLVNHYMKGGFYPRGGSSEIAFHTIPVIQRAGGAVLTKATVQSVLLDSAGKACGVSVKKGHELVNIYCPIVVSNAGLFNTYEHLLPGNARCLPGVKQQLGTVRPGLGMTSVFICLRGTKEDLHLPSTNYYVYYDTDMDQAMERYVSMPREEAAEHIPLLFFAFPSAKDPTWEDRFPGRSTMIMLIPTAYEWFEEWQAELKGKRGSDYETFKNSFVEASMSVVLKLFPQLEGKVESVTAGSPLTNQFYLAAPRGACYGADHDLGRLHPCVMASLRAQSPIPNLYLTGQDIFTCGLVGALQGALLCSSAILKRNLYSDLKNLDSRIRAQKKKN
Summary of the method: as §1

DHX9_C608 = target: T3, DHX9_C608 (Homo sapiens, UniProt Q08211)
T3 construct: endogenous in cells; host or cells: 22Rv1
T3 sequence (Q08211 whole entry): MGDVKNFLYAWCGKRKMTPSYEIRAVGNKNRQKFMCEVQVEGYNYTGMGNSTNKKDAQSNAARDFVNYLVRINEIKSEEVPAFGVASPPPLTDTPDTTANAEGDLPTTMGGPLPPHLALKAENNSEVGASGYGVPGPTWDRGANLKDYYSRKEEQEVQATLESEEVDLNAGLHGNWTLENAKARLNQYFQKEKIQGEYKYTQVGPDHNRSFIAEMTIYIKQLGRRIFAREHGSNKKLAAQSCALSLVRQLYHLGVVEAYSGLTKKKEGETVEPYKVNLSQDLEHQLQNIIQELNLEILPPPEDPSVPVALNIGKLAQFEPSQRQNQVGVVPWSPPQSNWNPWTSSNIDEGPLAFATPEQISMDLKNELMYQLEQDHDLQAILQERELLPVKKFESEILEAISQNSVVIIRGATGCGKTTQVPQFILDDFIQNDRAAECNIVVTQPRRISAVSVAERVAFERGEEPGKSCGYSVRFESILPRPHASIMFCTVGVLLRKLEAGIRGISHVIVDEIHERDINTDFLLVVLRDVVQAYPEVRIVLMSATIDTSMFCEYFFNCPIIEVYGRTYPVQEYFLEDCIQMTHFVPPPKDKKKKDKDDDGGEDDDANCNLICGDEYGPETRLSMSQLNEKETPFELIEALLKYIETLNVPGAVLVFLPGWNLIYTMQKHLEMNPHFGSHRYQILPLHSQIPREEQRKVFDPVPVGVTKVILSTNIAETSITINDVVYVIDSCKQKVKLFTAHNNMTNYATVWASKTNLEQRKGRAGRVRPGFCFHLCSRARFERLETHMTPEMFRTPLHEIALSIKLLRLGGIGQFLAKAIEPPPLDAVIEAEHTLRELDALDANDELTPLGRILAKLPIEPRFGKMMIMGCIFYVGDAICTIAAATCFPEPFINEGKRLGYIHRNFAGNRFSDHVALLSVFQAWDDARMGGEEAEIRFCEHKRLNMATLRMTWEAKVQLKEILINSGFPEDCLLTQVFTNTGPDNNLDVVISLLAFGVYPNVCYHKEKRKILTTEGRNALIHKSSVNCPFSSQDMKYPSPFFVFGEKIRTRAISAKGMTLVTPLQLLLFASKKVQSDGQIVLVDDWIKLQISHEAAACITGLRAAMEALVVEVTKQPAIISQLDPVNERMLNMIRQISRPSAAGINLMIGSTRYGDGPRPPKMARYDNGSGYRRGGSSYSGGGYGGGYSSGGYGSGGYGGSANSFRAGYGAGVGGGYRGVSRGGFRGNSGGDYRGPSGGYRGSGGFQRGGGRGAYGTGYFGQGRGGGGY
Summary of the method: as §1

HARS2_C173 = target: T4, HARS2_C173 (Homo sapiens, UniProt P49590)
T4 construct: endogenous in cells; host or cells: 22Rv1
T4 sequence (P49590 34-506): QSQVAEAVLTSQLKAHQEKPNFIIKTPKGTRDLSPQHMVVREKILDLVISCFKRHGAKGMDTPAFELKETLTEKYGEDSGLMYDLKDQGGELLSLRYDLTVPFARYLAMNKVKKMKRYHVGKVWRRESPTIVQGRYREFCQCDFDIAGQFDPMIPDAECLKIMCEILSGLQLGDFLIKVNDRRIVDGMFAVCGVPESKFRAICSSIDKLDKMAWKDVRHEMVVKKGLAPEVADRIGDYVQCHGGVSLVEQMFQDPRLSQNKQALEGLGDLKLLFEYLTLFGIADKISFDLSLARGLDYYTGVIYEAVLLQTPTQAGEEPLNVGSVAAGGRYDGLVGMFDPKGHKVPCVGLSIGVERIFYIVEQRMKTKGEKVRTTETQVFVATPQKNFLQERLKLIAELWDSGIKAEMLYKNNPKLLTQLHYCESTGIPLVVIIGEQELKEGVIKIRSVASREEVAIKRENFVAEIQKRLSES
Summary of the method: as §1

Structure (SMILES) | % engagement KRTCAP3_C197 (KRTCAP3_C197) [%] | % engagement RETSAT_C547 (RETSAT_C547) [%] | % engagement DHX9_C608 (DHX9_C608) [%] | % engagement HARS2_C173 (HARS2_C173) [%]
C=CC(=O)N1C[C@@H](c2ccc(Br)cc2)[C@H]1C(=O)Nc1cccc2cccnc12 [MY-1A, (2S,3R)-1-acryloyl-3-(4-bromophenyl)-N-(quinolin-8-yl)azetidine-2-carboxamide] | 61 | 80 | −10.5 | 84.75
C=CC(=O)N1C[C@H](c2ccc(Br)cc2)[C@@H]1C(=O)Nc1cccc2cccnc12 [MY-1B, (2R,3S)-1-acryloyl-3-(4-bromophenyl)-N-(quinolin-8-yl)azetidine-2-carboxamide] | 69.5 | 66.75 | −11 | 63.75
C=CC(=O)N1C[C@H](c2ccc(Br)cc2)[C@H]1C(=O)Nc1cccc2cccnc12 [MY-3A, (2S,3S)-1-acryloyl-3-(4-bromophenyl)-N-(quinolin-8-yl)azetidine-2-carboxamide] | 31 | 53.5 | 16 | 35.25
C=CC(=O)N1C[C@H](c2ccc(Br)cc2)[C@H]1C(=O)Nc1cccc2cccnc12 [MY-3B, (2S,3S)-1-acryloyl-3-(4-bromophenyl)-N-(quinolin-8-yl)azetidine-2-carboxamide] | 54 | 71.25 | 69.5 | 35.75

— patent US20250034216A1, “STEREOSELECTIVE COVALENT LIGANDS FOR ONCOGENIC AND IMMUNOLOGICAL PROTEINS” (The Scripps Research Institute, priority 2021, published 2025)
